Measured values taken from the NIST ThermoML archive (doi:10.1021/je900387e).

Experiment: xn = mol fraction of the nth substance listed
Details: Liquid, Pycnometric method

CCCCBr [1-bromobutane] + O=C=O
Details	mass density [kg/m3]
308.2 K, 6320 kPa, x1 = 0.1495	1011
308.2 K, 6620 kPa, x1 = 0.0989	890
308.2 K, 6840 kPa, x1 = 0.0989	897
308.2 K, 6850 kPa, x1 = 0.0683	834
308.2 K, 6930 kPa, x1 = 0.0683	836
308.2 K, 6980 kPa, x1 = 0.0683	838
308.2 K, 7040 kPa, x1 = 0.0989	903
308.2 K, 7050 kPa, x1 = 0.0683	842
308.2 K, 7090 kPa, x1 = 0.0461	805
308.2 K, 7090 kPa, x1 = 0.0683	845
308.2 K, 7160 kPa, x1 = 0.0683	848
308.2 K, 7230 kPa, x1 = 0.0461	811
308.2 K, 7240 kPa, x1 = 0.0683	850
308.2 K, 7350 kPa, x1 = 0.0683	854
308.2 K, 7350 kPa, x1 = 0.0989	910
308.2 K, 7380 kPa, x1 = 0.0245	712
308.2 K, 7390 kPa, x1 = 0.0461	817
308.2 K, 7400 kPa, x1 = 0.0245	711
308.2 K, 7400 kPa, x1 = 0.1495	1018
308.2 K, 7420 kPa, x1 = 0.0245	713
308.2 K, 7440 kPa, x1 = 0.0245	716
308.2 K, 7450 kPa, x1 = 0.0683	858
308.2 K, 7480 kPa, x1 = 0.0245	720
308.2 K, 7520 kPa, x1 = 0.0245	724
308.2 K, 7540 kPa, x1 = 0.0683	861
308.2 K, 7550 kPa, x1 = 0.0461	823
308.2 K, 7590 kPa, x1 = 0.0245	729
308.2 K, 7640 kPa, x1 = 0.0245	734
308.2 K, 7660 kPa, x1 = 0.0461	827
308.2 K, 7660 kPa, x1 = 0.0683	864
308.2 K, 7700 kPa, x1 = 0.0245	738
308.2 K, 7700 kPa, x1 = 0.0989	916
308.2 K, 7750 kPa, x1 = 0.0461	830
308.2 K, 7770 kPa, x1 = 0.0245	743
308.2 K, 7780 kPa, x1 = 0.0683	867
308.2 K, 7830 kPa, x1 = 0.0245	747
308.2 K, 7850 kPa, x1 = 0.0461	833
308.2 K, 7920 kPa, x1 = 0.0245	752
308.2 K, 7950 kPa, x1 = 0.0461	836
308.2 K, 8010 kPa, x1 = 0.0245	757
308.2 K, 8060 kPa, x1 = 0.0461	839
308.2 K, 8090 kPa, x1 = 0.0245	762
308.2 K, 8120 kPa, x1 = 0.0989	924
308.2 K, 8190 kPa, x1 = 0.0461	843
308.2 K, 8190 kPa, x1 = 0.1495	1026
308.2 K, 8200 kPa, x1 = 0.0245	767
308.2 K, 8300 kPa, x1 = 0.0245	772
308.2 K, 8420 kPa, x1 = 0.0245	777
308.2 K, 8610 kPa, x1 = 0.0989	930
308.2 K, 8620 kPa, x1 = 0.0245	785
308.2 K, 8840 kPa, x1 = 0.0245	793
308.2 K, 9040 kPa, x1 = 0.1495	1033
308.2 K, 9100 kPa, x1 = 0.0245	801
308.2 K, 9190 kPa, x1 = 0.0989	938
308.2 K, 9370 kPa, x1 = 0.0245	809
308.2 K, 9680 kPa, x1 = 0.0245	818
308.2 K, 9820 kPa, x1 = 0.0989	944
308.2 K, 9960 kPa, x1 = 0.1495	1041
308.2 K, 10040 kPa, x1 = 0.0245	827
308.2 K, 10130 kPa, x1 = 0.0989	948
308.2 K, 10420 kPa, x1 = 0.0245	835
308.2 K, 10860 kPa, x1 = 0.0245	844
308.2 K, 10920 kPa, x1 = 0.1495	1048
308.2 K, 11350 kPa, x1 = 0.0245	853
308.2 K, 11370 kPa, x1 = 0.1495	1051
308.2 K, 11880 kPa, x1 = 0.0245	863
308.2 K, 11910 kPa, x1 = 0.1495	1055
308.2 K, 12480 kPa, x1 = 0.0245	873
308.2 K, 12510 kPa, x1 = 0.1495	1060
308.2 K, 13080 kPa, x1 = 0.1495	1063
308.2 K, 13130 kPa, x1 = 0.0245	882
308.2 K, 13590 kPa, x1 = 0.0245	889
308.2 K, 13640 kPa, x1 = 0.1495	1067
308.2 K, 14140 kPa, x1 = 0.0245	896
308.2 K, 14210 kPa, x1 = 0.1495	1071
308.2 K, 14290 kPa, x1 = 0.0245	899
308.2 K, 14850 kPa, x1 = 0.1495	1075
308.2 K, 15150 kPa, x1 = 0.1495	1077
313.1 K, 6900 kPa, x1 = 0.1495	986
313.1 K, 7230 kPa, x1 = 0.0989	875
313.1 K, 7250 kPa, x1 = 0.1495	991
313.1 K, 7480 kPa, x1 = 0.0683	811
313.1 K, 7510 kPa, x1 = 0.1495	994
313.1 K, 7520 kPa, x1 = 0.0989	881
313.1 K, 7590 kPa, x1 = 0.0683	814
313.1 K, 7670 kPa, x1 = 0.0683	817
313.1 K, 7680 kPa, x1 = 0.0461	756
313.1 K, 7730 kPa, x1 = 0.0461	758
313.1 K, 7760 kPa, x1 = 0.0683	820
313.1 K, 7770 kPa, x1 = 0.1495	997
313.1 K, 7820 kPa, x1 = 0.0461	764
313.1 K, 7830 kPa, x1 = 0.0989	882
313.1 K, 7860 kPa, x1 = 0.0683	823
313.1 K, 7910 kPa, x1 = 0.0461	769
313.1 K, 7950 kPa, x1 = 0.0683	826
313.1 K, 7990 kPa, x1 = 0.0245	619
313.1 K, 8000 kPa, x1 = 0.0245	621
313.1 K, 8010 kPa, x1 = 0.0461	775
313.1 K, 8030 kPa, x1 = 0.0245	628
313.1 K, 8060 kPa, x1 = 0.0683	829
313.1 K, 8070 kPa, x1 = 0.0245	635
313.1 K, 8090 kPa, x1 = 0.1495	1001
313.1 K, 8100 kPa, x1 = 0.0245	641
313.1 K, 8100 kPa, x1 = 0.0461	780
313.1 K, 8140 kPa, x1 = 0.0245	649
313.1 K, 8170 kPa, x1 = 0.0683	832
313.1 K, 8170 kPa, x1 = 0.0989	893
313.1 K, 8190 kPa, x1 = 0.0245	656
313.1 K, 8240 kPa, x1 = 0.0245	663
313.1 K, 8240 kPa, x1 = 0.0461	786
313.1 K, 8290 kPa, x1 = 0.0683	835
313.1 K, 8300 kPa, x1 = 0.0245	671
313.1 K, 8360 kPa, x1 = 0.0245	679
313.1 K, 8360 kPa, x1 = 0.0461	791
313.1 K, 8390 kPa, x1 = 0.0683	838
313.1 K, 8430 kPa, x1 = 0.0245	687
313.1 K, 8460 kPa, x1 = 0.1495	1004
313.1 K, 8500 kPa, x1 = 0.0461	797
313.1 K, 8530 kPa, x1 = 0.0245	695
313.1 K, 8540 kPa, x1 = 0.0683	842
313.1 K, 8560 kPa, x1 = 0.0989	900
313.1 K, 8620 kPa, x1 = 0.0245	703
313.1 K, 8650 kPa, x1 = 0.0461	802
313.1 K, 8660 kPa, x1 = 0.0683	845
313.1 K, 8740 kPa, x1 = 0.0245	712
313.1 K, 8790 kPa, x1 = 0.0683	848
313.1 K, 8790 kPa, x1 = 0.1495	1008
313.1 K, 8840 kPa, x1 = 0.0461	808
313.1 K, 8860 kPa, x1 = 0.0245	720
313.1 K, 8930 kPa, x1 = 0.0683	851
313.1 K, 9010 kPa, x1 = 0.0245	729
313.1 K, 9030 kPa, x1 = 0.0989	907
313.1 K, 9040 kPa, x1 = 0.0461	814
313.1 K, 9110 kPa, x1 = 0.0683	854
313.1 K, 9180 kPa, x1 = 0.0245	738
313.1 K, 9240 kPa, x1 = 0.0461	820
313.1 K, 9260 kPa, x1 = 0.0683	858
313.1 K, 9380 kPa, x1 = 0.0245	748
313.1 K, 9440 kPa, x1 = 0.0683	861
313.1 K, 9470 kPa, x1 = 0.0461	826
313.1 K, 9480 kPa, x1 = 0.0989	913
313.1 K, 9540 kPa, x1 = 0.1495	1015
313.1 K, 9580 kPa, x1 = 0.0683	864
313.1 K, 9600 kPa, x1 = 0.0245	758
313.1 K, 9710 kPa, x1 = 0.0461	833
313.1 K, 9790 kPa, x1 = 0.0683	868
313.1 K, 9850 kPa, x1 = 0.0245	767
313.1 K, 9950 kPa, x1 = 0.1495	1018
313.1 K, 9990 kPa, x1 = 0.0461	840
313.1 K, 10020 kPa, x1 = 0.0989	920
313.1 K, 10150 kPa, x1 = 0.0245	778
313.1 K, 10330 kPa, x1 = 0.1495	1022
313.1 K, 10450 kPa, x1 = 0.0245	788
313.1 K, 10600 kPa, x1 = 0.0989	927
313.1 K, 10770 kPa, x1 = 0.1495	1026
313.1 K, 10840 kPa, x1 = 0.0245	799
313.1 K, 11180 kPa, x1 = 0.0989	933
313.1 K, 11240 kPa, x1 = 0.1495	1030
313.1 K, 11280 kPa, x1 = 0.0245	810
313.1 K, 11690 kPa, x1 = 0.1495	1033
313.1 K, 11760 kPa, x1 = 0.0245	821
313.1 K, 11850 kPa, x1 = 0.0989	941
313.1 K, 12120 kPa, x1 = 0.1495	1036
313.1 K, 12160 kPa, x1 = 0.0989	944
313.1 K, 12320 kPa, x1 = 0.0245	833
313.1 K, 12560 kPa, x1 = 0.0989	948
313.1 K, 12600 kPa, x1 = 0.1495	1040
313.1 K, 12960 kPa, x1 = 0.0245	845
313.1 K, 13090 kPa, x1 = 0.1495	1044
313.1 K, 13640 kPa, x1 = 0.1495	1047
313.1 K, 13700 kPa, x1 = 0.0245	857
313.1 K, 14170 kPa, x1 = 0.1495	1051
313.1 K, 14530 kPa, x1 = 0.0245	870
313.1 K, 14740 kPa, x1 = 0.1495	1056
313.1 K, 14980 kPa, x1 = 0.0245	876
313.1 K, 15070 kPa, x1 = 0.1495	1058
313.1 K, 15150 kPa, x1 = 0.0245	879
313.1 K, 15320 kPa, x1 = 0.1495	1060
316.1 K, 8270 kPa, x1 = 0.0245	528
316.1 K, 8280 kPa, x1 = 0.0245	532
316.1 K, 8300 kPa, x1 = 0.0245	537
316.1 K, 8320 kPa, x1 = 0.0245	543
316.1 K, 8340 kPa, x1 = 0.0245	549
316.1 K, 8360 kPa, x1 = 0.0245	556
316.1 K, 8380 kPa, x1 = 0.0245	562
316.1 K, 8410 kPa, x1 = 0.0245	572
316.1 K, 8460 kPa, x1 = 0.0245	582
